EP0571593B1, “NEW NON IONIC IODIZED AGENTS FOR X-RAY CONTRASTING, METHOD FOR PREPARING THEM AND GALENICAL COMPOSITIONS CONTAINING THEM” (CENTRO INVESTIGACION JUSTESA IMAGEN S.A., priority 1991, dated 1993)

How the values were obtained:
Assay type in all cases: physicochemical
[1] = Osmolality of aqueous solutions; conditions: 300mg I/ml
Iodine content = assay: Iodine content
[2] = Viscosity of aqueous solutions; conditions: 30°C, 300mg I/ml

Osmolality mosm/kg at 300mg I/ml [1] [mosm/kg] | % Iodine (Iodine content) | Viscosity mPa s (30°C) at 300mg I/ml [2] | Structure (SMILES)
310 | 51,6% | 7,2 mPa s | COCC(=O)Nc1c(I)c(C(=O)NCC(=O)Nc2c(I)c(C(=O)N(C)CC(O)CO)c(I)c(C(=O)N(C)CC(O)CO)c2I)c(I)c(C(=O)NCC(O)CO)c1I (stereo not shown) [EXAMPLE 1, N,N'-bis-(2,3-dihydroxypropyl)-N,N'-dimethyl-5-{3-[N-(2,3-dihydroxypropyl)carbamoyl]-5-methoxyacetamido-2,4,6-triiodobenzoylaminoacetamido}-2,4,6-triiodoisophthalamide]
166 | 52% | 8,4 mPa s | CN(CC(O)CO)C(=O)c1c(I)c(NC(=O)CNC(=O)c2c(I)c(NC(=O)CO)c(I)c(C(=O)NCC(O)CO)c2I)c(I)c(C(=O)N(C)CC(O)CO)c1I (stereo not shown) [EXAMPLE 2, N.N'-bis-(2,3-dihydroxypropyl)-N,N'-dimethyl-5-{3-[N-(2,3-dihydroxypropyl)carbamoyl]-5-hydroxyacetamido-2,4,6-triiodobenzoylaminoacetamido}-2,4,6-triiodoisophthalamide]
184 | 50,5% | 9,3 mPa s | CN(C(=O)CNC(=O)c1c(I)c(NC(=O)CO)c(I)c(C(=O)NCC(O)CO)c1I)c1c(I)c(C(=O)NC(CO)C(O)CO)c(I)c(C(=O)NC(CO)C(O)CO)c1I (stereo not shown) [EXAMPLE 3, N,N'-bis-(1-hydroxymethyl-2,3-dihydroxyprogyl)-5-{3[N-(2,3-dihydroxypropyl)carbamoyl]-5-hydroxyacetamido-2,4,6-triiodobenzoylaminoacetyl-N-methylamino}-2,4,6-triiodoisophthalamide]
289 | 50% | 9,4 mPa s | COCC(=O)Nc1c(I)c(C(=O)NCC(=O)N(C)c2c(I)c(C(=O)NC(CO)C(O)CO)c(I)c(C(=O)NC(CO)C(O)CO)c2I)c(I)c(C(=O)NCC(O)CO)c1I (stereo not shown) [EXAMPLE 4, N,N'-bis-(1-hydroxymethyl-2,3-dihydroxypropyl)-5-{3-(N-(2,3-dihydroxypropyl)carbamoyl]-5-methoxyacetamido-2,4,6-triiodobenzoylaminoacetyl-N-methylamino}-2,4,6-triiodo isophthalamide]
119 | 50,5% | 10,2 mPa s | COCC(=O)Nc1c(I)c(C(=O)NCC(=O)Nc2c(I)c(C(=O)N(C)CC(O)CO)c(I)c(C(=O)N(C)CC(O)CO)c2I)c(I)c(C(=O)NC(CO)C(O)CO)c1I (stereo not shown) [EXAMPLE 5, N,N'-bis-(2,3-dihydroxypropyl)-N,N'-dimethyl-5-{3-[N-(1-hydroxymethyl-2,3-dihydroxypropyl)carbamoyl]-5-methoxyacetamido-2,4,6-triiodobenzoylaminoacetamido}-2,4,6-triiodoisophthalamide]
116 | 51,5% | 9,5 mPa s | COCC(=O)Nc1c(I)c(C(=O)NCC(=O)Nc2c(I)c(C(=O)NCC(O)CO)c(I)c(C(=O)NCC(O)CO)c2I)c(I)c(C(=O)NC(CO)C(O)CO)c1I (stereo not shown) [EXAMPLE 6, N,N'-bis-(2,3-dihydroxypropyl)-5-{3-[N-(1-hydroxymethyl-2,3-dihydroxypropyl)carbamoyl]-5-methoxyacetamido-2,4,6-triiodobenzoylaminoacetamido}-2,4,6-triiodoisochthalamide]
147 | 49,5% | 10,5 mPa s | COCC(=O)Nc1c(I)c(C(=O)NCC(=O)Nc2c(I)c(C(=O)NC(CO)C(O)CO)c(I)c(C(=O)NC(CO)C(O)CO)c2I)c(I)c(C(=O)NC(CO)C(O)CO)c1I (stereo not shown) [EXAMPLE 7, N,N'-bis-(1-hydroxymethyl-2,3-dihydroxypropyl)-5-{3-[N-(1-hydroxymethyl-2,3-dihydroxypropyl)carbamoyl]-5-methoxyacetamido-2,4,6-triiodobenzoylaminoacetamido}-2,4,6-triiodo isophthalamide]
– | 53,7% | – | O=C(CN(CCO)C(=O)c1c(I)c(NC(=O)CO)c(I)c(C(=O)NCC(O)CO)c1I)Nc1c(I)c(C(=O)NCCO)c(I)c(C(=O)NCCO)c1I (stereo not shown) [EXAMPLE 14, N,N'-bis-(2-hydroxyethyl)-5-{3-[N-(2,3-dihydroxypropyl)-carbamoyl]-5-hydroxyacetamido-2,4,6-triiodobenzoyl-N-(2, hydroxyethyl)aminoacetamido}-2,4,6-triiodoisophthalamide]
– | 53,2% | – | COCC(=O)Nc1c(I)c(C(=O)NCC(O)CO)c(I)c(C(=O)N(CCO)CC(=O)Nc2c(I)c(C(=O)NCCO)c(I)c(C(=O)NCCO)c2I)c1I (stereo not shown) [EXAMPLE 17, N,N'-bis-(2-hydroxyethyl)-5-{3-[N-(2,3-dihydroxypropyl)carbamoyl]-5-methoxyacetamido-2,4,6-triodobenzoyl-N-(2-hydroxyethyl)aminoacetamido}-2,4,6-triiodoisophthalamide]
– | 53,1% | – | O=C(CO)Nc1c(I)c(C(=O)NCC(=O)Nc2c(I)c(C(=O)NCC(O)CO)c(I)c(C(=O)NCC(O)CO)c2I)c(I)c(C(=O)NCC(O)CO)c1I (stereo not shown) [EXAMPLE 18]
– | 51% | – | O=C(CO)Nc1c(I)c(C(=O)NCC(=O)Nc2c(I)c(C(=O)NC(CO)C(O)CO)c(I)c(C(=O)NC(CO)C(O)CO)c2I)c(I)c(C(=O)NCC(O)CO)c1I (stereo not shown) [EXAMPLE 19, N,N'-bis-(1-hydroxymethyl-2,3-dihydroxypropyl)-5-{3-[N-(2,3-dihydroxypropyl)carbamoyl]-5-hydroxyacetamido-2,4,6-triiodobenzoylaminoacetamido}-2,4,6-triiodoisophthalamide]
– | 50,5% | – | COCC(=O)Nc1c(I)c(C(=O)NCC(=O)Nc2c(I)c(C(=O)NC(CO)C(O)CO)c(I)c(C(=O)NC(CO)C(O)CO)c2I)c(I)c(C(=O)NCC(O)CO)c1I (stereo not shown) [EXAMPLE 20, N,N'-bis-(1-hydroxymethyl-2,3-dihydroxypropyl)-5-{3-[N-(2,3-dihydroxypropyl)carbamoyl]-5-methoxyacetamido-2,4,6-triiodobenzoylaminoacetamido}-2,4,6-triiodoisolphthalamide]
– | 50% | – | COCC(=O)Nc1c(I)c(C(=O)NCC(O)CO)c(I)c(C(=O)N(C)CC(=O)Nc2c(I)c(C(=O)NC(CO)C(O)CO)c(I)c(C(=O)NC(CO)C(O)CO)c2I)c1I (stereo not shown) [EXAMPLE 21, N,N'-bis-(1-hydroxymethyl-2,3-dihydroxypropyl)-5-{3-[N-(2,3-dihydroxypropyl)carbomoyl]-5-methoxyacetamido-2,4,6-triiodo-benzoyl-N-methylaminoacetamido}-2,4,6-triiodoisophthalamide]
– | 51,1% | – | COCC(=O)Nc1c(I)c(C(=O)NCC(=O)N(C)c2c(I)c(C(=O)N(C)CC(O)CO)c(I)c(C(=O)N(C)CC(O)CO)c2I)c(I)c(C(=O)NCC(O)CO)c1I (stereo not shown) [EXAMPLE 27, N,N'-bis-(2,3-dihydroxypropyl)-N,N'-dimethyl-5-{3-[N-(2,3-dihydroxypropyl)carbamoyl]-5-methoxyacetamido-2,4,6-triiodobenzoylaminoacetyl-N-methylamino}-2,4,6-triiodo isophthalamide]
– | 51,6% | – | COCC(=O)Nc1c(I)c(C(=O)NCC(=O)N(C)c2c(I)c(C(=O)NCC(O)CO)c(I)c(C(=O)NCC(O)CO)c2I)c(I)c(C(=O)NCC(O)CO)c1I (stereo not shown) [EXAMPLE 28, N,N'-bis-(2,3-dihydroxypropyl)-5-{3-[N-(2,3-dihydroxypropyl)carbamoyl]-5-methoxyacetamido-2,4,6-triiodobenzoylaminoacetyl-N-methylamino}-2,4,6-triiodoisophthalamide]
– | 51,1% | – | CN(CC(=O)N(C)c1c(I)c(C(=O)N(CCO)CCO)c(I)c(C(=O)N(CCO)CCO)c1I)C(=O)c1c(I)c(NC(=O)CO)c(I)c(C(=O)NCC(O)CO)c1I (stereo not shown) [EXAMPLE 29, N,N,N',N'-tetrakis-(2-hydroxyethyl)-5-{3-[N-(2,3-dihydroxypropyl)carbamoyl]-5-hydroxyacetamido-2,4,6-triiodobenzoyl-N-methylaminoacetyl-N-methylamino}-2,4,6-triiodoisophthalamide]
– | 50,6% | – | COCC(=O)Nc1c(I)c(C(=O)NCC(O)CO)c(I)c(C(=O)N(C)CC(=O)N(C)c2c(I)c(C(=O)N(CCO)CCO)c(I)c(C(=O)N(CCO)CCO)c2I)c1I (stereo not shown) [EXAMPLE 30, N,N,N',N', -tetrakis-(2-hydroxyethyl)-5-{3-[N-(2,3-dihydroxypropyl)carbamoyl]-5-methoxyacetamido-2,4,6-triiodobenzoyl-N -methylaminoacetyl-N-methylamino}-2,4,6-triiodo-isophthalamide]
– | 51,6% | – | COCC(=O)Nc1c(I)c(C(=O)NCC(=O)Nc2c(I)c(C(=O)N(CCO)CCO)c(I)c(C(=O)N(CCO)CCO)c2I)c(I)c(C(=O)NCC(O)CO)c1I (stereo not shown) [EXAMPLE 31, N,N,N',N'-tetrakis(2-hydroxyethyl)-5-{3-[N(2,3-dihydroxypropyl)carbamoyl]-5-methoxyacetamido-2,4,6-triiodobenzoylaminoacetamido}-2,4,6-triiodoisophthalamide]
– | 48,2% | – | COCC(=O)N(CCO)c1c(I)c(C(=O)NCC(O)CO)c(I)c(C(=O)N(CCO)CC(=O)N(CCO)c2c(I)c(C(=O)NCC(O)CO)c(I)c(C(=O)NCC(O)CO)c2I)c1I (stereo not shown) [EXAMPLE 33, N,N'-bis-(2,3-dihydroxypropyl)-5-{3-[N-(2,3-dihydroxypropyl)carbamoyl]-5-methoxyacetyl-N-(2-hydroxyethyl)amino-2,4,6-triiodobenzoyl-N-(2-hydroxyethyl)aminoacetyl-N-(2-hydroxyethyl)amino)-2,4,6-triiodoisophthalamide]
– | 50% | – | O=C(NCC(=O)N(CCO)c1c(I)c(C(=O)NCC(O)CO)c(I)c(C(=O)NCC(O)CO)c1I)c1c(I)c(C(=O)NCC(O)CO)c(I)c(N(CCO)C(=O)CO)c1I (stereo not shown) [EXAMPLE 34, N,N'-bis-(2,3-dihydroxypropyl)-5-{3-[N-(2,3-dihydroxypropyl)carbamoyl]-5-hydroxyacetyl-N-(2-hydroxyethyl)amino-2,4,6-triiodobenzoylaminoacetyl-N-(2-hydroxyethyl)amino}-2,4,6-triiodoisophthalamide]
